# Test results from BindingDB's records for doi:10.1021/acs.jmedchem.7b01525 (University of Montreal, 2017).
# Assays:
# Urotensin-2 receptor [1] = target: T1, Urotensin-2 receptor (Rattus norvegicus, UniProt P49684); experiment: Allosteric modulation of urotensin-2 receptor in Sprague-Dawley rat thoracic aorta assessed as change in URP-mediated aortic ring contraction by measuring URP pEC50 at 10^-5M preincubated for 15 mins followed by URP addition (Rvb = 8.09 +/- 0.03 No_unit)
# T1 sequence (P49684 whole entry): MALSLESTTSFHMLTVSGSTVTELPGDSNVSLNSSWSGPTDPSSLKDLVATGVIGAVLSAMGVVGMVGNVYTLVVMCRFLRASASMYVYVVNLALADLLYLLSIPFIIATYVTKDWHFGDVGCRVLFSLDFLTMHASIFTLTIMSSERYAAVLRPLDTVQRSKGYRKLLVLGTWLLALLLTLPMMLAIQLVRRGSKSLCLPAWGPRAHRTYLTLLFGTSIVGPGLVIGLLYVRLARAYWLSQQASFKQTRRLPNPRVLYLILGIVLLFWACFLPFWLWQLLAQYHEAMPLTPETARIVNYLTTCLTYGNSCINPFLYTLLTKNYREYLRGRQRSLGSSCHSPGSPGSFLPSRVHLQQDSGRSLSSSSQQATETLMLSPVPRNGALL
# Urotensin-2 receptor [2] = target: T1, Urotensin-2 receptor; experiment: Allosteric modulation of urotensin-2 receptor in Sprague-Dawley rat thoracic aorta assessed as change in human urotensin-2-mediated aortic ring contraction by measuring urotensin-2 pEC50 at 10^-5M preincubated for 15 mins followed by urotensin-2 addition (Rvb = 8.61 +/- 0.05 No_unit)
# Urotensin-2 receptor [3] = target: T2, Urotensin-2 receptor (Homo sapiens, UniProt Q9UKP6); experiment: Allosteric modulation of human urotensin-2 receptor expressed in HEK293 cells assessed as change in URP-induced G12 activation by measuring URP pEC50 at 10^-5 M preincubated for 30 mins followed by URP addition by BRET assay (Rvb = 6.75 +/- 0.19 No_unit)
# T2 sequence (Q9UKP6 whole entry): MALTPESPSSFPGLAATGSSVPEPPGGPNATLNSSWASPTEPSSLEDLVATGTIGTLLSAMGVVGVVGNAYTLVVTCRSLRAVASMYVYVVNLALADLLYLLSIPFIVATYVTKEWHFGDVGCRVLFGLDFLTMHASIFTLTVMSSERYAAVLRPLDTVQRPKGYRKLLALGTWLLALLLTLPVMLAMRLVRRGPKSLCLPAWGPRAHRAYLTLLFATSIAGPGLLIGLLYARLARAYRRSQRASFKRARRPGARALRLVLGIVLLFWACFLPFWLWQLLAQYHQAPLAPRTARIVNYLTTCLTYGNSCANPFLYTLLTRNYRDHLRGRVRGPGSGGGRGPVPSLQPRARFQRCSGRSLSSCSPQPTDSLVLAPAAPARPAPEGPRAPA
# Urotensin-2 receptor [4] = target: T2, Urotensin-2 receptor; experiment: Allosteric modulation of human urotensin-2 receptor expressed in HEK293 cells assessed as change in human urotensin-2-induced Gq activation by measuring urotensin-2 pEC50 at 10^-5 M preincubated for 30 mins followed by urotensin-2 addition by BRET assay (Rvb = 7.88 +/- 0.07 No_unit)
# Urotensin-2 receptor [5] = target: T2, Urotensin-2 receptor; experiment: Allosteric modulation of human urotensin-2 receptor expressed in HEK293 cells assessed as change in URP-induced Gq activation by measuring URP pEC50 at 10^-5 M preincubated for 30 mins followed by URP addition by BRET assay (Rvb = 8.28 +/- 0.08 No_unit)
# Urotensin-2 receptor [6] = target: T2, Urotensin-2 receptor; experiment: Allosteric modulation of human urotensin-2 receptor expressed in HEK293 cells assessed as change in human urotensin-2-induced G12 activation by measuring urotensin-2 pEC50 at 10^-5 M preincubated for 30 mins followed by urotensin-2 addition by BRET assay (Rvb = 6.31 +/- 0.17 No_unit)
# [7] = Allosteric modulation of urotensin-2 receptor in Sprague-Dawley rat thoracic aorta assessed as change in URP-mediated aortic ring contraction by measuring URP pEC50 at 1 uM preincubated for 15 mins followed by URP addition (Rvb = 8.09 +/- 0.03 No_unit)
# [8] = Allosteric modulation of urotensin-2 receptor in Sprague-Dawley rat thoracic aorta assessed as change in human urotensin-2-mediated aortic ring contraction by measuring urotensin-2 pEC50 at 1 uM preincubated for 15 mins followed by urotensin-2 addition (Rvb = 8.61 +/- 0.05 No_unit)
EC50 (Urotensin-2 receptor [1]) [nM],EC50 (Urotensin-2 receptor [2]) [nM],SMILES,also measured
4.3,4.3,CNCCCCN1N=C(CCc2nc3ccccc3s2)c2ccccc2N(Cc2ccc3ccccc3c2)C1=O,
5.8,4.8,NCCCN1N=C(CCc2nc3ccccc3s2)c2ccccc2N(Cc2cccc3ccccc23)C1=O,
10,4.4,NCCCCN1N=C(CCc2ccc(O)cc2)c2ccccc2N(Cc2ccc3ccccc3c2)C1=O,EC50 (Urotensin-2 receptor [3]): 1100 nM; EC50 (Urotensin-2 receptor [4]): 11 nM; EC50 (Urotensin-2 receptor [5]): 5 nM; EC50 (Urotensin-2 receptor [6]): 1180 nM
3.7,1.4,NCCCN1N=C(CCc2nc3ccccc3s2)c2ccccc2N(Cc2ccc(-c3ccccc3)cc2)C1=O,
11,4.5,NCCCN1N=C(CCc2ccc(O)cc2)c2ccccc2N(Cc2ccc(-c3ccccc3)cc2)C1=O,
8.5,3.6,COc1ccc(C=CC2=NN(CCCCN)C(=O)N(Cc3ccc4ccccc4c3)c3ccccc32)cc1,
9.3,,NCCCCN1N=C(C=Cc2ccc(O)cc2)c2ccccc2N(Cc2ccc(-c3ccccc3)cc2)C1=O,EC50 (Urotensin-2 receptor [3]): 117 nM; EC50 (Urotensin-2 receptor [4]): 14 nM; EC50 (Urotensin-2 receptor [5]): 4.2 nM; EC50 (Urotensin-2 receptor [6]): 2190 nM
6.6,4.1,CNCCCCN1N=C(CCc2nc3ccccc3s2)c2ccccc2N(Cc2cccc3ccccc23)C1=O,
20,3.5,NCCCCN1N=C(CCc2ccc(O)cc2)c2ccccc2N(Cc2ccc(-c3ccccc3)cc2)C1=O,
4,3.3,NCCCN1N=C(CCc2nc3ccccc3s2)c2ccccc2N(Cc2ccc3ccccc3c2)C1=O,EC50 (Urotensin-2 receptor [3]): 1950 nM; EC50 (Urotensin-2 receptor [4]): 11 nM; EC50 (Urotensin-2 receptor [5]): 6.2 nM; EC50 (Urotensin-2 receptor [6]): 3720 nM
4,5,COc1ccc(CCC2=NN(CCCCN)C(=O)N(Cc3ccc4ccccc4c3)c3ccccc32)cc1,
7.8,3.2,COc1ccc(CCC2=NN(CCCN)C(=O)N(Cc3ccc(-c4ccccc4)cc3)c3ccccc32)cc1,
,15,NCCCCN1N=C(C=Cc2ccc(O)cc2)c2ccccc2N(Cc2ccc3ccccc3c2)C1=O,
6.3,4,COc1ccc(CCC2=NN(CCCN)C(=O)N(Cc3ccc4ccccc4c3)c3ccccc32)cc1,
6.3,,COc1ccc(C=CC2=NN(CCCCN)C(=O)N(Cc3ccc(-c4ccccc4)cc3)c3ccccc32)cc1,EC50 (Urotensin-2 receptor [3]): 1740 nM; EC50 (Urotensin-2 receptor [4]): 8.5 nM; EC50 (Urotensin-2 receptor [5]): 7.1 nM; EC50 (Urotensin-2 receptor [6]): 2240 nM
3.5,3,NCCCCN1N=C(CCc2nc3ccccc3s2)c2ccccc2N(Cc2ccc3ccccc3c2)C1=O,
5,3.7,COc1ccc(CCC2=NN(CCCCN)C(=O)N(Cc3ccc(-c4ccccc4)cc3)c3ccccc32)cc1,
20,12,NCCCN1N=C(C=Cc2ccc(O)cc2)c2ccccc2N(Cc2ccc3ccccc3c2)C1=O,
15,6,CNCCCCN1N=C(CCc2nc3ccccc3s2)c2ccccc2N(Cc2ccc(-c3ccccc3)cc2)C1=O,
4.9,4.1,CNCCCN1N=C(CCc2nc3ccccc3s2)c2ccccc2N(Cc2ccc(-c3ccccc3)cc2)C1=O,
,,CC(C)[C@H](NC(=O)[C@@H]1CSSC[C@H](NC(=O)[C@H](C)N)C(=O)N[C@@H](Cc2ccccc2)C(=O)N[C@@H](Cc2ccc(-c3ccccc3)cc2)C(=O)N[C@@H](CCCCN)C(=O)N[C@@H](Cc2ccc(O)cc2)C(=O)N1)C(=O)O,EC50 [7]: 18 nM; EC50 [8]: 25 nM
10,3.7,NCCCN1N=C(CCc2ccc(O)cc2)c2ccccc2N(Cc2ccc3ccccc3c2)C1=O,
3.7,12,NCCCCN1N=C(CCc2nc3ccccc3s2)c2ccccc2N(Cc2ccc(-c3ccccc3)cc2)C1=O,
